# Source: patent publication US20240279302A1, “OLFACTORY RECEPTOR EXPRESSING METHOD AND RESPONSE MEASUREMENT METHOD” (Kao Corporation, priority 2021, published 2024)
# Like-named read-outs stand apart in the source and are kept apart here.
# Assays:
# [1] = biological target: T1, OR2T11 (Homo sapiens, UniProt Q8NH01); conditions: cited from earlier work
# T1 sequence (Q8NH01 1-316): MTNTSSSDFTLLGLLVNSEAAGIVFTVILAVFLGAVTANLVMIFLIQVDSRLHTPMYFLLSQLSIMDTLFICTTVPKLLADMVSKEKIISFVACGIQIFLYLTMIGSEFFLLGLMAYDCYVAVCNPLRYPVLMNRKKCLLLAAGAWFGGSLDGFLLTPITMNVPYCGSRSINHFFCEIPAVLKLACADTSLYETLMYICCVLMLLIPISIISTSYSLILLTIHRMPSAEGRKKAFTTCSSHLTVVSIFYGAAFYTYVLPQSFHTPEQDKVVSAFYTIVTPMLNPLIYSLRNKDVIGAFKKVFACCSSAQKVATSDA
# [2] = biological target: T2, consensus OR2T11 (Homo sapiens, UniProt Q8NH01); assay: Luciferase assay, sulfur compounds; assay type: cell-based
# T2 construct: fused on or other part: N-terminal Flag-Rho tag from the pME18S vector
# [3] = biological target: T3, consensus OR2L13 (Homo sapiens, UniProt Q8N349, C217Y/C28L/D174N/F161Y/F208L/F25L/F309S/G145I/H228R/H49R/H6Q/I211L/I240C/I248T/I24L/L123V/L17F/L185P/R301T/S128P/S215A/T115A/T149I/T189M/Y130H/Y82F); assay: Luciferase assay, sulfur compounds; assay type: cell-based; conditions: in the presence of a copper ion
# T3 construct: Flag (N); Rho tag (N); expressed in transfected cells; host or cells: HEK293
# T3 sequence (Q8N349 1-312 H6Q/L17F/I24L/F25L/C28L/H49R/Y82F/T115A/L123V/S128P/Y130H/G145I/T149I/F161Y/D174N/L185P/T189M/F208L/I211L/S215A/C217Y/H228R/I240C/I248T/R301T/F309S): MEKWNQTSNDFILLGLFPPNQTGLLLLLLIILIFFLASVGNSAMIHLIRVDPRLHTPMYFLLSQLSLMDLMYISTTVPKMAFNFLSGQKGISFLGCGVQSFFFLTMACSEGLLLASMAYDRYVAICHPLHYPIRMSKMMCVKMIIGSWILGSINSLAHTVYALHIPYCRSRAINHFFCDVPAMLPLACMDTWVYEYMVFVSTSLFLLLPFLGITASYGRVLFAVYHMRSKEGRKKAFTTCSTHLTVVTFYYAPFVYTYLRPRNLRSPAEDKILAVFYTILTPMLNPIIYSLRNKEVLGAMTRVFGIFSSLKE
# [4] = biological target: T4, consensus OR2T29 (Homo sapiens, UniProt Q8NH02, A149V/A76M/C55S/F147L/I190K/I217V/K41M/L14S/L223S/L224F/L249M/L87M/M19V/M302T/M75V/R23S/R6W/S169T/S32C/S61T/T121A/T189M/V229I/V48I/V96I/W176R); assay: Luciferase assay, sulfur compounds; assay type: cell-based
# T4 construct: expressed in transfected cells; host or cells: HEK293
# T4 sequence (Q8NH02 with tags, fused parts or gaps R6W/L14S/M19V/R23S/S32C/K41M/V48I/C55S/S61T/M75V/A76M/L87M/V96I/T121A/F147L/A149V/S169T/W176R/T189M/I190K/I217V/L223S/L224F/V229I/L249M/M302T): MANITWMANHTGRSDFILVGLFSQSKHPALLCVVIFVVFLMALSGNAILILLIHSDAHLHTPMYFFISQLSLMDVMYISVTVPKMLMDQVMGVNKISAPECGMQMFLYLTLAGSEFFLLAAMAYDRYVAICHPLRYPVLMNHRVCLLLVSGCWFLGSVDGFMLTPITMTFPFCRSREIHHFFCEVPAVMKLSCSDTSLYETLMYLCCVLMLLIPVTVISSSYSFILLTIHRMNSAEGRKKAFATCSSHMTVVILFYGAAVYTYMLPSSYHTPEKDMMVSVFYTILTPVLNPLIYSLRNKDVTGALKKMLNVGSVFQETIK
# [5] = Block E et al., Nat. Prod. Rep. 2017
# [6] = in the presence of a copper ion
# [7] = read-out: EC50(μM) with 30 μM CuCl2; consensus OR2T11; 30 μM CuCl2
EC50 ([2]; consensus OR2T11; 30 μM CuCl2; read-out: EC50(μM) with 30 μM CuCl2),SMILES,"response of OR2T11 [1, 5]","dose dependence of the response of consensus OR2T11 [2, 6]","response of consensus OR2T11 [2, 6]","EC50 [2, 7]",response of consensus OR2L13 [3],"response of consensus OR2T29 [4, 6]",response of OR2T11 ([1]; in the presence of a metal ion (JP-B-6122181)),EC50 [4],"dose dependence of the response of consensus OR2T29 [4, 6]"
–,CSSC [dimethyl disulfide],responds,dose-dependent response,responded,246 µM,responded,responded,–,–,–
26 µM,CSSSC [dimethyl trisulfide],–,dose-dependent response,responded,–,responded,responded,–,–,–
–,CS [methyl mercaptan],responds,dose-dependent response,responded,5 µM,responded,responded,respond,85 µM,dose-dependent response
